Patent EP0054589B1, “Organic phosphoric acid ester derivatives, a process for preparing the same and insecticidal, miticidal or nematocidal compositions containing the same” (priority 1980, dated 1982)

Experiments:
rice stem borer = assay: Insecticidal effect on rice stem borer, 3rd-instar larvae (rice seedling dip); format: in vivo, Chilo suppressalis; conditions: after 72 hours, 25°C
Procedure, shortened: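 Wettable-powder formulations were diluted in water to set concentrations, and rice seedlings were dipped in them. Ten 3rd-instar larvae were placed per capped cup with the treated seedlings and held at 25°C.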

diamond back moth = assay: Insecticidal effect on diamond-back moth (cabbage leaf dip); format: in vivo, Plutella xylostella; conditions: 100 ppm, after 72 hours, 25°C
Procedure, shortened: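 Cabbage leaves dipped 10 s in water-diluted emulsifiable concentrate at set concentration, air-dried; thirty 3rd-instar diamond-back moth larvae per cup held at 25°C. Percent mortality scored after 72 h, three replicates per treatment.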

carmine mites = assay: Miticidal effect on carmine mite (sprayed kidney bean seedling); format: in vivo, Tetranychus cinnabarius; conditions: 500 ppm
Description: An emulsifiable concentrate prepared as described in Formulation Example 1 and diluted to a predetermined concentration was sprayed using a spray-gun on a seedling of a kidney bean placed in a pot of 12 cm in diameter to which plant carmine mites were parasitic. After drying in air, seedlings were kept in a green house, and the number of living insects was recorded on the 7th, 14th, 21st and 28th day from the day of application to determine the control effects. Three pots were used for each treatment. The control effect was assessed by the following formula: [formula] • wherein Σ indicates sum and Cb, Tb, Cai and Tai have the following meanings. • Cb: Number of living mites in non-treated sample before application. • Tb: Number of living mites in treated sample before application. • Cai: Number of living mites in non-treated sample 7th, 14th, 21 st or 28th day from the application. • Tai: Number of living mites in treated sample 7th, 14th, 21st or 28th day from the application.

[1] = tested on: carmine mites resistant to Kelthane; assay: Miticidal effect on carmine mite resistant to Kelthane (sprayed egg plant seedling); format: in vivo, Tetranychus cinnabarius; conditions: 500 ppm; for Number of Living Mites after Application 7th Day / Number of Living Mites after Application 14th Day / Number of Living Mites after Application 21st Day / Number of Living Mites after Application 28th Day: egg plant seedling; for Control Effect (%): from mite counts on 7th, 14th, 21st and 28th day
Description: (§1) (A) An emulsifiable concentrate prepared as described in Formulation Example 1 and diluted to a predetermined concentration was sprayed using a spray-gun on a seedling of an egg plant placed in a pot of 12 cm in diametre to which plant carmine mites resistant to Kelthane were parasitic. After drying in air, seedlings were kept in a green house, and the number of living insects was recorded on the 7th, 14th, 21 st and 28th day from the day of application to determine the control effects. Three pots were used for each treatment. The control effect was assessed by the formula described in TEST EXAMPLE 7 above. Further, phytotoxicity was observed visually on the 7th day after the application.
as §1, with “(B) An” for “(A) An”, “Example 3” for “Example 1”, “in diameter” for “in diametre”, “in Test” for “in TEST”

egg plant [2] = assay: Phytotoxicity observed visually in the mite test on egg plant; format: in vivo; set-up: key: —: None; +: Slightly toxic; ++: Toxic; +++: Strongly toxic; conditions: 500 ppm, observed visually on the 7th day after the application
Description: as §1
as §1, with “(B) An” for “(A) An”, “Example 3” for “Example 1”, “in diameter” for “in diametre”, “in Test” for “in TEST”

Apple = assay: Phytotoxicity on various crops; format: in vivo; set-up: key: Symbol — indicates that no toxicity was observed; conditions: 500 ppm sprayed; checked visually after 10 days
Procedure, shortened: (§2)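 EC diluted to 500 ppm a.i., sprayed generously by gun; greenhouse, 10 d; visual phytotoxicity check; triplicate.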

Beet = assay: Phytotoxicity on various crops; format: in vivo; set-up: key: Symbol — indicates that no toxicity was observed; conditions: 500 ppm sprayed; checked visually after 10 days
Procedure, shortened: as §2

Cabbage = assay: Phytotoxicity on various crops; format: in vivo; set-up: key: Symbol — indicates that no toxicity was observed; conditions: 500 ppm sprayed; checked visually after 10 days
Procedure, shortened: as §2

Cotton = assay: Phytotoxicity on various crops; format: in vivo; set-up: key: Symbol — indicates that no toxicity was observed; conditions: 500 ppm sprayed; checked visually after 10 days
Procedure, shortened: as §2

Cucumber = assay: Phytotoxicity on various crops; format: in vivo; set-up: key: Symbol — indicates that no toxicity was observed; conditions: 500 ppm sprayed; checked visually after 10 days
Procedure, shortened: as §2

Green Pepper = assay: Phytotoxicity on various crops; format: in vivo; set-up: key: Symbol — indicates that no toxicity was observed; conditions: 500 ppm sprayed; checked visually after 10 days
Procedure, shortened: as §2

Kidney Bean = assay: Phytotoxicity on various crops; format: in vivo; set-up: key: Symbol — indicates that no toxicity was observed; conditions: 500 ppm sprayed; checked visually after 10 days
Procedure, shortened: as §2

Rice = assay: Phytotoxicity on various crops; format: in vivo; set-up: key: Symbol — indicates that no toxicity was observed; conditions: 500 ppm sprayed; checked visually after 10 days
Procedure, shortened: as §2

Tea = assay: Phytotoxicity on various crops; format: in vivo; set-up: key: Symbol — indicates that no toxicity was observed; conditions: 500 ppm sprayed; checked visually after 10 days
Procedure, shortened: as §2

Tomato = assay: Phytotoxicity on various crops; format: in vivo; set-up: key: Symbol — indicates that no toxicity was observed; conditions: 500 ppm sprayed; checked visually after 10 days
Procedure, shortened: as §2

egg plant [3] = assay: Phytotoxicity on various crops; format: in vivo; set-up: key: Symbol — indicates that no toxicity was observed; conditions: 500 ppm sprayed; checked visually after 10 days
Procedure, shortened: as §2

[4] = Table 1, 500 ppm, wettable powder as Formulation Example 5
[5] = Table 7, emulsifiable concentrate as Formulation Example 1
[6] = Table 13, Formulation Example 1
[7] = Table 14, Formulation Example 3

| SMILES | Percent Mortality (%) (rice stem borer; [4]) | Percent Mortality (%) (diamond back moth; [5]) | Control Effect (%) (carmine mites) | Number of Living Mites after Application 7th Day (carmine mites) | Number of Living Mites after Application 14th Day (carmine mites) | Number of Living Mites after Application 21st Day (carmine mites) | Number of Living Mites after Application 28th Day (carmine mites) | Number of Living Mites after Application 7th Day [1, 6] | Number of Living Mites after Application 14th Day [1, 6] | Phytotoxicity: Apple (Apple) | Phytotoxicity: Beet (Beet) | Phytotoxicity: Cabbage (Cabbage) | Phytotoxicity: Cotton (Cotton) | Phytotoxicity: Cucumber (Cucumber) | Phytotoxicity: Green Pepper (Green Pepper) | Phytotoxicity: Kidney Bean (Kidney Bean) | Phytotoxicity: Rice (Rice) | Phytotoxicity: Tea (Tea) | Phytotoxicity: Tomato (Tomato) | Phytotoxicity: Egg Plant (egg plant [3]) | further results |
| --- | --- | --- | --- | --- | --- | --- | --- | --- | --- | --- | --- | --- | --- | --- | --- | --- | --- | --- | --- | --- | --- |
| CCCSP(=O)(OC)Oc1ccc2c(c1)OC(C)=CC2(C)C (stereo not shown) [Compound No. 1] | 100 | 100 | 99.6 | 0 | 0 | 0 | 3 | 0 | 0 | — | — | — | — | — | — | — | — | — | — | — | Number of Living Mites after Application 21st Day [1, 6]: 5; Number of Living Mites after Application 28th Day [1, 6]: 11; Control Effect (%) ([1]; Table 13): 99.0%; Phytotoxicit (egg plant [2]; Table 13): — |
| CCCSP(=O)(OCC)Oc1ccc2c(c1)OC(C)=CC2(C)C (stereo not shown) [Compound No. 2, O-ethyl-S-propyl-O-(2,4,4-trimethyl-1,4-benzopyran-7-yl)phosphorothioate] | 100 | 100 | 99.0 | 0 | 0 | 0 | 11 | 0 | 0 | — | — | — | — | — | — | — | — | — | — | — | Number of Living Mites after Application 21st Day [1, 6]: 7; Number of Living Mites after Application 28th Day [1, 6]: 10; Control Effect (%) ([1]; Table 13): 99.1%; Phytotoxicit (egg plant [2]; Table 13): — |
| CCCSP(=S)(OC)Oc1ccc2c(c1)OC(C)=CC2(C)C (stereo not shown) [Compound No. 9, 0-methyl-S-propyl-(2,4,4-trimethyl-1,4-benzopyran-7-yl)phosphorodithioate] | 100 | 100 | 99.0 | 0 | 0 | 0 | 8 | 0 | 0 | — | — | — | — | — | — | — | — | — | — | — | Number of Living Mites after Application 21st Day [1, 6]: 0; Number of Living Mites after Application 28th Day [1, 6]: 0; Control Effect (%) ([1]; Table 13): 100%; Phytotoxicit (egg plant [2]; Table 13): — |
| CCCSP(=S)(OCC)Oc1ccc2c(c1)OC(C)=CC2(C)C (stereo not shown) [Compound No. 10] | 100 | 100 | 97.6 | 0 | 0 | 2 | 19 | 0 | 0 | — | — | — | — | — | — | — | — | — | — | — | Number of Living Mites after Application 21st Day [1, 6]: 4; Number of Living Mites after Application 28th Day [1, 6]: 16; Control Effect (%) ([1]; Table 13): 99.0%; Number of Living Mites after Application 7th Day [1, 7]: 0; Number of Living Mites after Application 14th Day [1, 7]: 0; Number of Living Mites after Application 21st Day [1, 7]: 0; Number of Living Mites after Application 28th Day [1, 7]: 12; Control Effect (%) ([1]; Table 14): 98.7%; Phytotoxicit (egg plant [2]; Table 13): —; Phytotoxicit (egg plant [2]; Table 14): — |
| CCCSP(=O)(OCC)Oc1ccc2c(c1)OC(C)(C)C=C2C (stereo not shown) [Compound No. 20, O-ethyl-S-propyl-0-(2,2,4-trimethyl-1,2-benzopyran-7-yl)phosphorothioate] | 100 | 100 |  |  |  |  |  |  |  | — | — | — | — | — | — | — | — | — | — | — | Percent Mortality (%) (rice stem borer; Table 1, 100 ppm, wettable powder as Formulation Example 5): 100%; Percent Mortality (%) (rice stem borer; Table 2, 100 ppm, wettable powder as Formulation Example 7): 100%; Percent Mortality (%) (diamond back moth; Table 8, emulsifiable concentrate as Formulation Example 4): 100% |
